Results taken from patent US20100197610A1, “FRUCTOSE 1, 6 BISPHOSPHATE - A NOVEL ANTICONVULSANT DRUG” (Baylor College of Medicine, priority 2007, published 2010).

Columns and labels:
[1] = Capillary depletion of brain samples (FDP in stripped vs whole cortex); assay type: in vivo, Sprague-Dawley rats
Experimental: (§1) Actual levels of FDP were determined by monitoring absorbance of reduced nicotinamide adenine dinucleotide (NADH) and treating the sample with aldolase (EC 4.1.2.13, 45 units mg-1 diluted 1:27 with distilled water), the enzyme which cleaves FDP into dihydroxyacetone phosphate (DAP) and D-glyceraldehyde 3-phosphate (GAP). DAP and GAP are interconverted by the enzyme triosephosphate isomerase (TIM, EC 5.3.3.1, 5290 units mg-1 diluted 1:120 with distilled water). […] After 5 min the absorbance was read 3 times at 340 nm, each reading 3 min apart. The average of these readings is the initial absorbance (Ai). This step removes any DAP or GAP in the sample and determines the baseline absorbance. Aldolase (0.01 ml) was then added and mixed to cleave FDP into DAP and GAP. Nine minutes after addition of the aldolase, the final absorbance (Af) was determined by 3 readings at 340 nm, each 6 minutes apart. The concentration of FDP in the sample was proportional to the difference in the initial and final absorbance. Two moles of NADH are oxidized for each mole of FDP. Blanks and a FDP standard sample were run in parallel with every assay. Each blank had 1.6 ml of the TEA buffer, 1.4 ml water and the mixture of TIM and GDH. […] Levels of FDP in blood were determined per ml, while levels in tissue samples were determined as a function of tissue weight. […]

in vivo = assay: in vivo; design: species or system rats; settings: Sprague-Dawley, rat, po
Experimental: as §1, with “water). Glycerol-3-phosphate dehydrogenase (GDH, EC 1.1.1.8, 252 units mg-1 diluted 1:100 with distilled water) catalyzes the reduction of DAP by NADH. For the FDP measurements, 1.5 ml of tetraethyl ammonium buffer (TEA, 0.4 mol l-1, pH 7.6 with EDTA 40 mmol l-1) was added to 1 ml of the sample in a 4 ml cuvette.” for “water).”, “Aldolase (0.01 ml) was then added and mixed to cleave FDP into DAP and GAP.” left out, “absorbance.” for “absorbance. Two moles of NADH are oxidized for each mole of FDP. Blanks and a FDP standard sample were run in parallel with every assay. Each blank had 1.6 ml of the TEA buffer, 1.4 ml water and the mixture of TIM and GDH.”

## O=C(COP(=O)(O)O)[C@@H](O)[C@H](O)[C@H](O)COP(=O)(O)O [F1,6BP, Fructose-1,6-bisphosphate]
[1]; animals treated with FDP, n=7
  ratio of FDP in the stripped cortex to the FDP in whole cortex: 0.91±0.01
[1]; sacrificed ≦2 hours or more than 12 hours after FDP
  levels of FDP in the endothelial cells compared to control: no difference
In vivo
  concentration at 7 days: 22200 ± 3300 ng/mL
In vivo; 7 days
  FDP levels in the brain: 0.50 ± 0.024 mg/g
